Several values for one entry are separate records, joined by “and”; a condition that tells them apart may be missing. Equal entries are not always repeated.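 Compound exposure: 48 hours, 5 concentrations, 96-well plates. GI50 is the concentration that inhibits growth by half. At the TGI there is no net growth.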 Where a SMILES comes first, the peptide text is derived from it.
Assays:
Assay in all cases: NCI anticancer screen, dose series, 48 h
KM12 colon = system: KM12 colon
SF-268 CNS = system: SF-268 CNS
SK-MEL-28 melanoma = system: SK-MEL-28 melanoma
SNB-75 CNS = system: SNB-75 CNS
LOX IMVI melanoma = system: LOX IMVI melanoma
HOP-62 NSCLC = system: HOP-62 NSCLC
SF-539 CNS = system: SF-539 CNS
NCI-H226 lung = system: NCI-H226 lung
HL-60(TB) leukemia = system: HL-60(TB) leukemia
CAKI-1 renal = system: CAKI-1 renal
UACC-62 melanoma = system: UACC-62 melanoma
UO-31 renal = system: UO-31 renal
DU-145 prostate = system: DU-145 prostate
PC-3 prostate = system: PC-3 prostate

Structure (SMILES) | TGI (KM12 colon) | TGI (SF-268 CNS) | TGI (SK-MEL-28 melanoma) | TGI (SNB-75 CNS) [µM] | TGI (LOX IMVI melanoma) [µM] | TGI (HOP-62 NSCLC) | TGI (SF-539 CNS) [µM] | TGI (NCI-H226 lung) [µM] | TGI (HL-60(TB) leukemia) | TGI (CAKI-1 renal) [µM] | TGI (UACC-62 melanoma) | TGI (UO-31 renal) [µM] | TGI (DU-145 prostate) [µM] | TGI (PC-3 prostate) [µM] | GI50 (KM12 colon) [µM] | GI50 (SF-268 CNS) | GI50 (SK-MEL-28 melanoma) | GI50 (HOP-62 NSCLC) [µM] | GI50 (HL-60(TB) leukemia) | GI50 (UACC-62 melanoma) [µM]
COC(=O)c1ccc(/C=C2\N=C(C)OC2=O)cc1 | > 100 µM | > 100 µM | > 100 µM | > 100 | > 100 | > 100 µM | > 100 | > 100 | > 100 µM | > 100 | > 100 µM | – | – | – | – | – | – | – | – | –
C=CCn1c(=O)n(CC=C)c(=O)n(CC=C)c1=O | > 100 µM | > 100 µM | > 100 µM | – | > 100 | > 100 µM | > 100 | – | > 100 µM | – | > 100 µM | > 100 | – | – | – | – | – | – | – | –
O=C1NC(=O)C(CCO)(c2ccccc2)C(=O)N1 | > 100 µM | > 100 µM | > 100 µM | > 100 | > 31.6 | > 100 µM | > 100 | > 100 | > 100 µM | – | > 100 µM | > 100 | – | – | – | – | – | – | – | –
O=C(c1ccccc1)c1c(-c2ccccc2)[nH]n(-c2ccc([N+](=O)[O-])cc2)c(=O)c1=O | > 100 µM | > 100 µM | > 100 µM | – | – | > 100 µM | 88 | > 100 | > 100 µM | > 100 | > 100 µM | > 100 | > 100 | > 100 | – | – | – | – | – | –
Clc1ccc(Cl)c(Nc2ccnc(SCc3ccccc3)n2)c1 | > 100 µM | > 100 µM | > 100 µM | > 100 | > 100 | > 100 µM | > 100 | – | – | > 100 | > 100 µM | > 100 | > 100 | > 100 | – | – | – | – | – | –
Cc1cc(C)cc(C(=N)c2ccccc2Cc2cccc3ccccc23)c1 | 24 µM | 34.9 µM | 34.7 µM | – | 33 | 32.2 µM | 30 | 29.3 | 33.5 µM | 72.9 | 29 µM | > 100 | 29.7 | > 100 | – | – | – | – | – | –
CCOC(=O)c1csc(NC(=O)C(C)N2CCCCC2)n1 (stereo not drawn) | > 100 µM | – | > 100 µM | > 100 | > 100 | > 100 µM | > 100 | – | > 100 µM | > 100 | > 100 µM | > 100 | > 100 | > 100 | – | – | – | – | – | –
COc1ccc(C[N+]23C(CC[C@H]2c2ccccc2)CC[C@H]3c2ccccc2)cc1 (stereo partly drawn) | 24.4 µM | > 100 µM | > 100 µM | 54.1 | 44.7 | 67.3 µM | – | 55 | 24.7 µM | > 100 | – | > 100 | 77.8 | 92.1 | – | – | – | – | – | –
COc1ccnc2c1C(=O)c1nc3ccccc3c3ccnc-2c13 | 0.588 µM | – | 7.37 µM | 0.589 | 5.47 | 5.34 µM | 33.7 | – | 0.29 µM | 0.6 | 0.504 µM | 0.894 | 0.31 | 1.81 | – | – | – | – | – | –
O=c1c(-c2ccccc2)c(SCCCN2CCN(c3cccc(Cl)c3)CC2)n(-c2ccccc2)c(=S)n1-c1ccccc1 | > 100 µM | – | > 100 µM | > 100 | > 100 | > 100 µM | > 100 | > 100 | > 100 µM | > 100 | > 100 µM | – | > 100 | > 100 | – | – | – | – | – | –
C[C@H]1[C@H](C)CC[C@]2(C)CC[C@]3(C)C(=C[C@@H](O)[C@@H]4[C@@]5(C)[C@H](O)[C@@H](O)[C@H](O)C(C)(C)[C@@H]5CC[C@]43C)[C@H]12 | > 100 µM | > 100 µM | – | – | > 100 | > 100 µM | > 100 | – | > 100 µM | > 100 | > 100 µM | > 100 | > 100 | > 100 | – | – | – | – | – | –
CCC(C)C(NC(=O)C(CCCCN)NC(=O)C(NC(=O)C(CCC(N)=O)NC(=O)C(N)CCCNC(=N)N)C(C)CC)C(=O)NC(Cc1c[nH]c2ccccc12)C(=O)NC(Cc1ccccc1)C(=O)NC(CCC(N)=O)C(=O)NC(CC(N)=O)C(=O)NC(CCCNC(=N)N)C(=O)NC(CCCNC(=N)N)C(=O)NC(CCSC)C(=O)NC(CCCCN)C(=O)NC(Cc1c[nH]c2ccccc12)C(=O)NC(CCCCN)C(=O)NC(CCCCN)C(=O)N1CCCC1C(=O)NC(C)C(=O)NC(CCCCN)C(=O)NC(CCCNC(=N)N)C(=O)NC(CCCCN)C(=O)NC(CC(C)C)C(=O)NC(Cc1ccccc1)C(=O)NCC(=O)O (stereo not drawn) (H-RQIKIWFQNRRMKWKKPAKRKLFG-OH; configuration not given here) | > 25 µM | > 25 µM | > 25 µM | > 25 | > 25 | > 25 µM | – | > 25 | 17.6 µM | > 25 | – | > 25 | > 25 | > 25 | – | – | – | – | – | –
CCCCCC(C[N+]1(C)CCOCC1)C(=O)/C=C/c1ccccc1 (stereo not drawn) | 8.71 µM | – | 30 µM | 15.7 | 4.02 | 69.2 µM | 23.5 | 25.6 | 37.5 µM | 32.1 | 26.6 µM | 29.7 | – | – | – | – | – | – | – | –
CN(C)C(=O)OCOC(=O)N(C)C | > 100 µM | > 100 µM | > 100 µM | > 100 | > 100 | > 100 µM | > 100 | > 100 | > 31.6 µM | > 100 | > 100 µM | > 100 | – | – | – | – | – | – | – | –
CCCCN1C=CN2c3nc4cc(C)c(C)cc4n3C(C(=O)OC)=C(C(=O)OC)C12 (stereo not drawn) | – | > 100 µM | – | > 100 | > 100 | > 100 µM | > 100 | – | > 100 µM | > 100 | > 100 µM | > 100 | – | – | – | – | – | – | – | –
COC(=O)C1OC(Oc2cc(O)c3c(=O)cc(-c4ccc(O)cc4)oc3c2)C(O)C(O)C1O (stereo not drawn) | > 100 µM | > 100 µM | > 100 µM | > 100 | > 100 | > 100 µM | > 100 | > 100 | > 100 µM | > 100 | > 100 µM | > 100 | – | – | – | – | – | – | – | –
OCC1OC(n2cnc3c2NC=NC[C@H]3O)C(O)C1O (stereo partly drawn) | > 450 µM | > 450 µM | > 450 µM | > 450 | > 450 | > 419 µM | > 450 | > 273 | 284 µM | > 450 | > 450 µM | > 450 | – | – | – | – | – | – | – | –
CN(C)C(=O)NCCN1CCCCCc2ccccc21 | > 100 µM | > 100 µM | > 100 µM | – | > 100 | > 100 µM | > 100 | > 100 | > 100 µM | > 100 | > 100 µM | > 100 | > 100 | > 100 | – | – | – | – | – | –
CCOC(=O)C(N)CSC(=O)NC (stereo not drawn) | 460 µM | 443 µM | 440 µM | 598 | 133 | 567 µM | 231 | 681 | 272 µM | 461 | 304 µM | 602 | 597 | 455 | – | – | – | – | – | –
CC1=CC(C2/C(=N/O)C=C(C)CC2(C)C)C(O)C(C)(C)C1 (stereo not drawn) | 31.6 µM | 37.1 µM | 30.9 µM | 29.2 | 32.3 | 29.5 µM | 41.7 | 33.7 | 37.2 µM | 28.2 | 29.4 µM | 29 | 29.1 | 29.8 | – | – | – | – | – | –
C=C1C(=O)O[C@H]2[C@H]1[C@@H](OC(=O)C=C(C)C)CC1=C[C@@H](C[C@@]3(C)O[C@@H]23)OC1=O | 15.7 µM and 29.7 µM | 35.6 µM and 22.9 µM | 46 µM and 8.18 µM | 33.3 | – | 52.2 µM and 187 µM | 5.29 | 36.2 | 0.977 µM and 4.9 µM | 9.11 | 12.8 µM and 31.6 µM | 20.9 | – | – | 10.4 | 17.5 µM and 5.11 µM | 8.31 µM and 3.23 µM | 60.9 | 0.292 µM and 2.24 µM | 11.3

Reference: PubChem BioAssay (NCI)
